Data as given in BindingDB's records for patent US20250313563 (The Broad Institute, 2025).
pIC50: −log10 of the molar value. Where “and” joins values, the source holds several entries; their conditions need not be identical. Equal entries are not always repeated.

Assays:
[1] = biological target: Glycogen synthase kinase-3 alpha (Homo sapiens, UniProt P49840); test: TR-FRET Assay
Procedure: (§1) The assay was performed in a white, 384 well, low volume, flat bottom plate (Grenier). […] The kinase activity was quenched with 2 μL of 250 mM EDTA. A 10 μL volume of 40 nM Strepavidin-d2, 2 nM Tb2+-pSer641 antibody in TR-FRET Detection Buffer (Invitrogen) was then added.

[2] = biological target: Glycogen synthase kinase-3 beta (Homo sapiens, UniProt P49841); test: TR-FRET Assay
Chain of Glycogen synthase kinase-3 beta (P49841 whole entry): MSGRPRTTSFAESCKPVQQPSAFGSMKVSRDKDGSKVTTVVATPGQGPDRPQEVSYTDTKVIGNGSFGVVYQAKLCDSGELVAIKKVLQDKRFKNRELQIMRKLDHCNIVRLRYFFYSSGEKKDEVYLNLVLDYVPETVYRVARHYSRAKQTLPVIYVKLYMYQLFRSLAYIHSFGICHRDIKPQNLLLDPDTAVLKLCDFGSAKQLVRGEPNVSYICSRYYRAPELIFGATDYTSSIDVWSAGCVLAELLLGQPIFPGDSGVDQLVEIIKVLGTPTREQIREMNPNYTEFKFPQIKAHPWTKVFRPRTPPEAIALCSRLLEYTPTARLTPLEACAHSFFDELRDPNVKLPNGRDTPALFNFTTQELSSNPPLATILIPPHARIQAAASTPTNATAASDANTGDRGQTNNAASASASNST
Procedure: as §1

Chain of Glycogen synthase kinase-3 alpha (P49840 whole entry): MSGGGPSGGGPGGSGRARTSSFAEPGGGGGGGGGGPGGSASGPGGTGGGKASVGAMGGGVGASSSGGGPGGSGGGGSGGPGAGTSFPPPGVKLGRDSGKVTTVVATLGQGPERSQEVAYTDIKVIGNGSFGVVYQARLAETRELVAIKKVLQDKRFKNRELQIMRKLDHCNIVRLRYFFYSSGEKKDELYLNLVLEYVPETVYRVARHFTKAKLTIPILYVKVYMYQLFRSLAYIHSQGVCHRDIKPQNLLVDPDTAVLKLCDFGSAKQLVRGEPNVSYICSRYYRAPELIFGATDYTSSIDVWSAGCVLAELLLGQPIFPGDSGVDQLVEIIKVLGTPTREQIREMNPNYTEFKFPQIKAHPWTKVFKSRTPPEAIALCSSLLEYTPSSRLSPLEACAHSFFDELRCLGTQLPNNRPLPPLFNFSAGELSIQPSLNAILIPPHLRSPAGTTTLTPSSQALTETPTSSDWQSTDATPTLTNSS

SMILES	pIC50 [1]	pIC50 [2]
CC[C@@]1(c2cccc(-c3ccncn3)c2)C2=CN=NC2NC2=C1C(=O)CC(C)(C)C2 (stereo partly drawn) [US20250313563, Compound 810489]	5.30 to 6.00	< 5.30
CC(C)(C)CC1=C2C(N=N1)NC1=C(C(=O)CC(C)(C)C1)C21CCCc2ccccc21 (stereo not drawn) [US20250313563, Compound 810495]	6.00 to 7.00	> 7.00
CCC1(CC)C2=C(N=NC2)NC2=C1C(=O)CC(C)(C)C2 [US20250313563, Compound 810505]	5.30 to 6.00	< 5.30
CCC1(c2cccc(N3CCCC3)c2)C2=C(CC(C)(C)CC2=O)NC2N=NC(C(F)(F)F)=C21 (stereo not drawn) [US20250313563, Compound 810506]	> 7.00	> 7.00
CCC1(c2cccc(N3CCOCC3)c2)C2=C(CC(C)(C)CC2=O)NC2N=NC(C(F)(F)F)=C21 (stereo not drawn) [US20250313563, Compound 810507]	> 7.00	> 7.00
CCC1(c2cccc(SC)c2)C2=CN=NC2NC2=C1C(=O)CC(C)(C)C2 (stereo not drawn) [US20250313563, Compound 810508]	> 7.00	6.00 to 7.00
CC[C@]1(c2cccc(N3CCCC3)c2)C2=CN=NC2NC2=C1C(=O)CC(C)(C)C2 (stereo partly drawn) [US20250313563, Compound 810509]	< 5.30	< 5.30
CC[C@@]1(c2cccc(N3CCCC3)c2)C2=CN=NC2NC2=C1C(=O)CC(C)(C)C2 (stereo partly drawn) [US20250313563, Compound 810510]	> 7.00	6.00 to 7.00
CC1(C)CC(=O)C2=C(C1)NC1N=NC(CC(F)(F)F)=C1C21CCc2c(F)cccc21 (stereo not drawn) [US20250313563, Compound 810590]	6.00 to 7.00	6.00 to 7.00
CC1(C)CC(=O)C2=C(C1)NC1N=NC(C3(C(F)(F)F)CC3)=C1C21CCc2c(F)cccc21 (stereo not drawn) [US20250313563, Compound 810591]	6.00 to 7.00	6.00 to 7.00
CCC1(c2ccccc2)C2=C(N=NC2)NC2=C1C(=O)CC1(CCC1)C2 (stereo not drawn) [US20250313563, Compound 811555]	6.00 to 7.00	6.00 to 7.00
CC1N=NC2=C1C(C)(c1cccc(C(F)(F)F)c1)C1=C(CC(C)(C)CC1=O)N2 (stereo not drawn) [US20250313563, Compound 811556]	> 7.00	> 7.00
CC[C@@]1(c2cccc(C3CC3)c2)C2=CN=NC2NC2=C1C(=O)CC(C)(C)C2 (stereo partly drawn) [US20250313563, Compound 811557]	> 7.00 and 6.00 to 7.00	> 7.00 and 5.30 to 6.00
CC[C@@]1(c2cccc(C3CC3)c2)C2=CN=NC2NC2=C1C(=O)CC(C)(C)C2 (stereo partly drawn) [US20250313563, Compound 811558]	5.30 to 6.00	< 5.30
CC[C@]1(c2cccc(OC)c2)C2=CN=NC2NC2=C1C(=O)CC(C)(C)C2 (stereo partly drawn) [US20250313563, Compound 811561]	5.30 to 6.00	< 5.30
CC[C@]1(c2cccc(OC(C)C)c2)C2=CN=NC2NC2=C1C(=O)CC(C)(C)C2 (stereo partly drawn) [US20250313563, Compound 811564]	> 7.00	> 7.00
CC[C@]1(c2cccc(-c3cnn(C)c3)c2)C2=C(CC(C)(C)CC2=O)NC2N=NC(C(F)(F)F)=C21 (stereo partly drawn) [US20250313563, Compound 811565]	> 7.00	> 7.00
CC[C@@]1(c2cccc(-c3cnn(C)c3)c2)C2=C(CC(C)(C)CC2=O)NC2N=NC(C(F)(F)F)=C21 (stereo partly drawn) [US20250313563, Compound 811567]	6.00 to 7.00	6.00 to 7.00
CC(C)(C)CC1=C2C(N=N1)NC1=C(C(=O)CC(C)(C)C1)[C@]21CCCc2ccccc21 (stereo partly drawn) [US20250313563, Compound 811595]	6.00 to 7.00	> 7.00
CC(C)(C)CC1=C2C(N=N1)NC1=C(C(=O)CC(C)(C)C1)[C@@]21CCCc2ccccc21 (stereo partly drawn) [US20250313563, Compound 811596]	5.30 to 6.00	6.00 to 7.00
CCC1(c2cccc(-c3cnn(C)c3)c2)C2=CN=NC2NC2=C1C(=O)CC(C)C2 (stereo not drawn) [US20250313563, Compound 816752]	> 7.00	5.30 to 6.00
CC1(C)CC(=O)C2=C(C1)NC1=C(CN=N1)C21CCc2c(Cl)cccc21 (stereo not drawn) [US20250313563, Compound 816795]	> 7.00	6.00 to 7.00
CCC1(c2ccccc2)C2=C(N=NC2)NC2=C1C(=O)CC(C)(C(F)(F)F)C2 (stereo not drawn) [US20250313563, Compound 816796]	6.00 to 7.00	5.30 to 6.00
CC1(C)CC(=O)C2=C(C1)NC1=C(CN=N1)[C@@]2(C)c1cc(C(F)(F)F)ccc1F [US20250313563, Compound 816797]	5.30 to 6.00	< 5.30
CC1(C)CC(=O)C2=C(C1)NC1=C(CN=N1)[C@]2(C)c1cc(C(F)(F)F)ccc1F [US20250313563, Compound 816798]	> 7.00	6.00 to 7.00
CC[C@@]1(c2cccc(N3CCCCC3)c2)C2=C(CC(C)(C)CC2=O)NC2N=NC(C(F)(F)F)=C21 (stereo partly drawn) [US20250313563, Compound 816799]	6.00 to 7.00	5.30 to 6.00
CC[C@]1(c2cccc(N3CCCCC3)c2)C2=C(CC(C)(C)CC2=O)NC2N=NC(C(F)(F)F)=C21 (stereo partly drawn) [US20250313563, Compound 816800]	> 7.00	> 7.00

SMILES	pIC50 [1]	pIC50 [2]
CC1(C)CC(=O)C2=C(C1)NC1N=NC(CC(F)(F)F)=C1[C@@]21CCc2c(F)cccc21 (stereo partly drawn) [US20250313563, Compound 816837]	5.30 to 6.00	6.00 to 7.00
CC1(C)CC(=O)C2=C(C1)NC1N=NC(CC(F)(F)F)=C1[C@]21CCc2c(F)cccc21 (stereo partly drawn) [US20250313563, Compound 816838]	6.00 to 7.00	6.00 to 7.00
CC1(C)CC(=O)C2=C(C1)NC1N=NC(C3(C(F)(F)F)CC3)=C1[C@]21CCc2c(F)cccc21 (stereo partly drawn) [US20250313563, Compound 816840]	5.30 to 6.00	6.00 to 7.00
CCC1(c2cccc(-c3cnn(C)c3)c2)C2=CN=NC2NC2=C1C(=O)CC(C)(C)C2 (stereo not drawn) [US20250313563, Compound 816871]	> 7.00	6.00 to 7.00
CC[C@@]1(c2ccccc2)C2=CN=NC2NC2=C1C(=O)C[C@](C)(COC)C2 (stereo partly drawn) [US20250313563, Compound 816873]	6.00 to 7.00	5.30 to 6.00
CC[C@]1(c2ccccc2)C2=CN=NC2NC2=C1C(=O)C[C@](C)(COC)C2 (stereo partly drawn) [US20250313563, Compound 816875]	6.00 to 7.00	5.30 to 6.00
CC[C@]1(c2ccccc2)C2=CN=NC2NC2=C1C(=O)C[C@]1(CCCOC1)C2 (stereo partly drawn) [US20250313563, Compound 816878]	6.00 to 7.00	5.30 to 6.00
CC[C@]1(c2ccccc2)C2=CN=NC2NC2=C1C(=O)C[C@@]1(CCCOC1)C2 (stereo partly drawn) [US20250313563, Compound 816879]	6.00 to 7.00	6.00 to 7.00
CC[C@@]1(c2ccccc2)C2=CN=NC2NC2=C1C(=O)C[C@]1(CCOC1)C2 (stereo partly drawn) [US20250313563, Compound 816881]	6.00 to 7.00	5.30 to 6.00
CC[C@]1(c2ccccc2)C2=CN=NC2NC2=C1C(=O)C[C@]1(CCOC1)C2 (stereo partly drawn) [US20250313563, Compound 816884]	6.00 to 7.00	5.30 to 6.00
CC[C@]1(c2cccc(N3CCOCC3)c2)C2=C(CC(C)(C)CC2=O)NC2N=NC(C(F)(F)F)=C21 (stereo partly drawn) [US20250313563, Compound 816885]	> 7.00	> 7.00
CC[C@@]1(c2cccc(N3CCOCC3)c2)C2=C(CC(C)(C)CC2=O)NC2N=NC(C(F)(F)F)=C21 (stereo partly drawn) [US20250313563, Compound 816886]	5.30 to 6.00	5.30 to 6.00
CCC1(c2cccc(CN3CCCCC3)c2)C2=CN=NC2NC2=C1C(=O)CC(C)(C)C2 (stereo not drawn) [US20250313563, Compound 819560]	5.30 to 6.00	< 5.30
CCC1(c2cccc(S(C)(=O)=O)c2)C2=CN=NC2NC2=C1C(=O)CC(C)(C)C2 (stereo not drawn) [US20250313563, Compound 819561]	> 7.00	> 7.00
CC1(C)CC(=O)C2=C(C1)NC1=C(CN=N1)C2(C)CCc1ccccc1 (stereo not drawn) [US20250313563, Compound 819562]	5.30 to 6.00	< 5.30
CCC1(CCc2ccccc2)C2=C(N=NC2)NC2=C1C(=O)CC(C)(C)C2 (stereo not drawn) [US20250313563, Compound 819563]	5.30 to 6.00	< 5.30
CCC1(c2cccc(C(F)F)c2)C2=CN=NC2NC2=C1C(=O)CC(C)(C)C2 (stereo not drawn) [US20250313563, Compound 819564]	> 7.00	> 7.00
CCC1(c2cccc(Br)c2)C2=CN=NC2NC2=C1C(=O)CC(C(F)(F)F)C2 (stereo not drawn) [US20250313563, Compound 819565]	6.00 to 7.00	6.00 to 7.00
CC[C@]1(c2ccccc2)C2=CN=NC2NC2=C1C(=O)C[C@@](C)(C(F)(F)F)C2 (stereo partly drawn) [US20250313563, Compound 819568]	6.00 to 7.00	6.00 to 7.00
CC[C@@]1(c2ccccc2)C2=CN=NC2NC2=C1C(=O)C[C@@](C)(C(F)(F)F)C2 (stereo partly drawn) [US20250313563, Compound 819569]	6.00 to 7.00	5.30 to 6.00
CC[C@]1(c2ccccc2)C2=CN=NC2NC2=C1C(=O)CC1(CCC1)C2 (stereo partly drawn) [US20250313563, Compound 819573]	> 7.00	6.00 to 7.00
CC[C@]1(c2cccc(N3CCCC3)c2)C2=C(CC(C)(C)CC2=O)NC2N=NC(C(F)(F)F)=C21 (stereo partly drawn) [US20250313563, Compound 819574]	> 7.00	> 7.00
CC[C@@]1(c2cccc(-c3cnn(C)c3)c2)C2=CN=NC2NC2=C1C(=O)CC(C)(C)C2 (stereo partly drawn) [US20250313563, Compound 819576]	6.00 to 7.00	5.30 to 6.00
CC[C@]1(c2cccc(-c3cnn(C)c3)c2)C2=CN=NC2NC2=C1C(=O)CC(C)(C)C2 (stereo partly drawn) [US20250313563, Compound 819577]	6.00 to 7.00	6.00 to 7.00
CCC1(c2cccc(C(F)(F)F)c2)C2=CN=NC2NC2=C1C(=O)NC(C)(C)C2F (stereo not drawn) [US20250313563, Compound 819622]	> 7.00	6.00 to 7.00
CC[C@]1(c2cccc(C3CCOCC3)c2)C2=CN=NC2NC2=C1C(=O)CC(C)(C)C2 (stereo partly drawn) [US20250313563, Compound 819638]	6.00 to 7.00	6.00 to 7.00
CC[C@@]1(c2cccc(C3CCOCC3)c2)C2=CN=NC2NC2=C1C(=O)CC(C)(C)C2 (stereo partly drawn) [US20250313563, Compound 819639]	5.30 to 6.00	< 5.30
